# Experimental data taken from EPA's ToxRefDB 2.
# How the values were obtained:
# rat [1] = details: Multigenerational reproductive toxicity study, sprague dawley, Oral, Gavage/Intubation, dose end: 2 generation
# rat [2] = details: Multigenerational reproductive toxicity study, sprague dawley, Oral, Gavage/Intubation, dose end: 2 generation; remark: listed apart in the source
# rat [3] = details: Prenatal developmental toxicity study, fischer, Oral, Gavage/Intubation, dose end: 15 GD
# mouse = details: Prenatal developmental toxicity study, cd1, Oral, Gavage/Intubation, dose end: 15 GD
# rat [4] = details: Subchronic oral toxicity in rodents, Gavage/Intubation, dose end: 91 day
# rat [5] = details: Prenatal developmental toxicity study, sprague dawley, Oral, Gavage/Intubation, dose end: 15 GD
# [6] = group: offspring, developmental / offspring survival late / viability index / viability index + systemic / in life observation / body weight / offspring (pup…
# [7] = group: offspring, systemic / in life observation / body weight / offspring (pup) weight + systemic / in life observation / body weight / offspring (pup) …
# [8] = group: parental, systemic / in life observation / body weight / body weight gain + systemic / in life observation / clinical signs / [other] + systemic / in …
# [9] = group: parental, systemic / in life observation / clinical signs / reduced activity + systemic / in life observation / body weight / body weight gain + …
# [10] = group: reproductive, reproductive / reproductive performance / estrous cycle / length + reproductive / reproductive performance / pregnancy index / pregnancy …
# [11] = group: offspring, systemic / in life observation / body weight / offspring (pup) weight
# [12] = group: parental, systemic / in life observation / clinical signs / reduced activity
# [13] = group: parental, systemic / in life observation / clinical signs / reduced activity + systemic / organ weight / adrenal gland / relative to body weight + …
# [14] = group: reproductive, reproductive / offspring survival early / litter size / litter size + reproductive / offspring survival early / live fetuses / live fetuses
# [15] = group: reproductive, reproductive / reproductive performance / gestational length / gestational length + reproductive / reproductive performance / pregnancy …
# [16] = group: developmental, systemic / in life observation / body weight / fetal weight
# [17] = group: maternal, reproductive / reproductive performance / resorptions / resorptions + systemic / in life observation / body weight / body weight + systemic…
# [18] = group: maternal, systemic / in life observation / clinical signs / hunched posture + systemic / in life observation / clinical signs / lacrimation + systemic…
# [19] = group: developmental, developmental / developmental malformation / general / [other] + systemic / in life observation / body weight / fetal weight
# [20] = group: maternal, reproductive / reproductive performance / estrous cycle / abnormal + reproductive / reproductive performance / estrous cycle / absent …
# [21] = group: systemic, systemic / clinical chemistry / albumin / albumin + systemic / clinical chemistry / cholesterol / cholesterol + systemic / clinical …
# [22] = group: systemic, systemic / clinical chemistry / sodium / sodium + systemic / pathology microscopic / mammary gland / hyperplastic alveolar nodule + systemic…
# [23] = group: maternal, systemic / organ weight / placenta / absolute
compound,measurement,setting,value
CN(C)CCCN1c2ccccc2Sc2ccc(Cl)cc21.Cl [Chlorpromazine hydrochloride],LOAEL,rat [1]; [6],> 100 mg/kg/day
same,NOAEL,rat [1]; [6],≥ 100 mg/kg/day
same,LEL,rat [1]; [7],12.5 mg/kg/day
same,NEL,rat [1]; [7],< 12.5 mg/kg/day
same,LOAEL,rat [1]; [8],> 100 mg/kg/day
same,NOAEL,rat [1]; [8],≥ 100 mg/kg/day
same,LEL,rat [1]; [9],12.5 mg/kg/day
same,NEL,rat [1]; [9],< 12.5 mg/kg/day
same,LEL,"rat [1]; group: reproductive, reproductive / reproductive performance / estrous cycle / length",25 mg/kg/day
same,LOAEL,rat [1]; [10],> 100 mg/kg/day
same,NEL,rat [1]; [10],12.5 mg/kg/day
same,NOAEL,rat [1]; [10],≥ 100 mg/kg/day
same,LOAEL,rat [2]; [6],> 100 mg/kg/day
same,NOAEL,rat [2]; [6],≥ 100 mg/kg/day
same,LEL,rat [2]; [11],12.5 mg/kg/day
same,NEL,rat [2]; [11],< 12.5 mg/kg/day
same,LEL,rat [2]; [12],12.5 mg/kg/day
same,NEL,rat [2]; [12],< 12.5 mg/kg/day
same,LOAEL,rat [2]; [13],> 100 mg/kg/day
same,NOAEL,rat [2]; [13],≥ 100 mg/kg/day
same,LEL,rat [2]; [14],12.5 mg/kg/day
same,NEL,rat [2]; [14],< 12.5 mg/kg/day
same,LOAEL,rat [2]; [15],> 100 mg/kg/day
same,NOAEL,rat [2]; [15],≥ 100 mg/kg/day
same,LEL,rat [3]; [16],5 mg/kg/day
same,LOAEL,rat [3]; [16],> 45 mg/kg/day
same,NEL,rat [3]; [16],< 5 mg/kg/day
same,NOAEL,rat [3]; [16],≥ 45 mg/kg/day
same,LOAEL,rat [3]; [17],> 45 mg/kg/day
same,NOAEL,rat [3]; [17],≥ 45 mg/kg/day
same,LEL,rat [3]; [18],5 mg/kg/day
same,NEL,rat [3]; [18],< 5 mg/kg/day
same,LOAEL,mouse; [19],> 30 mg/kg/day
same,NEL,mouse; [19],5 mg/kg/day
same,NOAEL,mouse; [19],≥ 30 mg/kg/day
same,LEL,mouse; [16],15 mg/kg/day
same,LOAEL,mouse; [17],> 30 mg/kg/day
same,NEL,mouse; [17],5 mg/kg/day
same,NOAEL,mouse; [17],≥ 30 mg/kg/day
same,LEL,"mouse; group: maternal, systemic / in life observation / body weight / body weight + systemic / in life observation / body weight / body weight gain",15 mg/kg/day
CS(=O)(=O)O.Cc1cc(CCN2CCN(c3nsc4ccccc34)CC2)cc2c1NC(=O)CC2(C)C,LEL,rat [4]; [20],10 mg/kg/day
same,LOAEL,rat [4]; [20],> 60 mg/kg/day
same,NEL,rat [4]; [20],< 10 mg/kg/day
same,NOAEL,rat [4]; [20],≥ 60 mg/kg/day
same,LOAEL,rat [4]; [21],> 60 mg/kg/day
same,NOAEL,rat [4]; [21],≥ 60 mg/kg/day
same,LEL,rat [4]; [22],10 mg/kg/day
same,NEL,rat [4]; [22],< 10 mg/kg/day
O=C1CCCO1 [4-Butyrolactone],LEL,rat [5]; [16],50 mg/kg/day
same,LOAEL,rat [5]; [16],> 500 mg/kg/day
same,NEL,rat [5]; [16],10 mg/kg/day
same,NOAEL,rat [5]; [16],≥ 500 mg/kg/day
same,LEL,rat [5]; [23],10 mg/kg/day
same,LOAEL,rat [5]; [23],> 500 mg/kg/day
same,NEL,rat [5]; [23],< 10 mg/kg/day
same,NOAEL,rat [5]; [23],≥ 500 mg/kg/day
